Measurements published in patent US11260066B2, “Inhibiting reduction of lean body mass and inhibiting accumulation of liver fat by administering allulose” (SAMYANG CORPORATION, priority 2017, dated 2022).

How the values were obtained:
Assay type in all cases: in vivo
[1] = Body fat and lean body mass measured by DXA, 12-week human application test; settings: for Lean, 12 W, Mean / Fat, Difference (average change at 12 weeks compared to base time) / Lean, Difference (12 W vs baseline): ITT 33; for Fat, 12 W, Mean: ITT 33 overweight/obese adults
Method: After conducting a screening test for those who heard the detailed description of the purpose and research method of the present example and agreed in writing as subjects, those who met the selection/exclusion criteria were selected. The specific selection criteria are as follows, and the final selected subjects are 99 men and women who are overweight or obese, and the demographic information of the selected subjects is shown in the following Table 1. The efficacy test was performed by dividing 99 selected test subjects into 3 groups, and by providing three products to the high-dose group (33 people), low-dose group (33 people), and control group (33 people), respectively. The allulose high-dose product was provided to the high-dose test group, and the allulose low-dose product was provided to the low-dose test group, and placebo product was provided to the control group. Ninety nine (99) subjects were randomly assigned to the high-dose group, low-dose group or control group, with including 33 subjects in each test group. In three test groups, the products were mixed in 100 ml of water and were administered orally twice a day. As the daily dose for one test subject, 12 g allulose in the high-dose group, 6 g allulose and 6 g anhydrous glucose in the low-dose group, and 12 g anhydrous glucose in the control group were divided and provided twice a day. It was administered from the day after the random assignment day (0 day), and was taken with drinking water twice at morning and evening with meals for 12 weeks. At the random assignment day (0 day), the efficacy evaluation items and safety evaluation items such as DXA measurement and the like were checked, and the evaluation items were also checked through hospital outpatient visit at 4 weeks, 8 weeks and 12 weeks from the day of beginning administration of test products. In addition, during the human application test, the usual physical activity of subjects was investigated using Korean version of International Physical Activity Questionnaire (IPAQ). During the human application test period, the subjects were trained to maintain the activity amount being similar to normal physical activity. At each hospital outpatient visit, the amount of meal intake was examined by the recording board made by the subjects. The subjects were trained to maintain the amount of meal intake being similar to the usual amount with avoiding overeating condition. At the time of second hospital visit (visit 2) and final hospital visit (visit 5), the body fat ratio and body fat were measured using prodigy DXA of U.S. Lunar Company. For the body fat measured by DXA, after calculating the change of the body fat after 12 weeks compared to the base time, technical statistics (mean, standard deviation, median value, minimum value, maximum value) were obtained. The comparative statistic test for the three groups was performed using ANOVA or Kruscal-Wallis test by testing whether data were normally distributed. When there was a significant difference between the three groups, the multiple comparison was conducted through Tukey-Kramer method. In order to find out whether there was a difference in the mean change in a group, it was analyzed using Paired t-test or Wilcoxon's signed rank test.

[2] = Glucose index test (FBS, Insulin, HbA1c) on collected blood, human application test; settings: for Glucose, 12 W, Mean / Glucose, 12 W, Median / HbA1, 12 W, Mean / HbA1, 12 W, Median / Insulin, 12 W, Mean / Insulin, 12 W, Median / Glucose, Difference (12 W vs baseline) / Insulin, Difference (12 W vs baseline): ITT 33
Text: After conducting a screening test for those who heard the detailed description of the purpose and research method of the present example and agreed in writing as subjects, those who met the selection/exclusion criteria were selected. The specific selection criteria are as follows, and the final selected subjects are 99 men and women who are overweight or obese, and the demographic information of the selected subjects is shown in the following Table 1. Ninety nine (99) subjects were randomly assigned to the high-dose group, low-dose group or control group, with including 33 subjects in each test group. In three test groups, the products were mixed in 100 ml of water and were administered orally twice a day. As the daily dose for one test subject, 12 g allulose in the high-dose group, 6 g allulose and 6 g anhydrous glucose in the low-dose group, and 12 g anhydrous glucose in the control group were divided and provided twice a day. It was administered from the day after the random assignment day (0 day), and was taken with drinking water twice at morning and evening with meals for 12 weeks. At the time of screening hospital visit (visit1), visit2 and final visit (visit5), FBS, Insulin, and HbAlc test was conducted for the collected blood. After calculating the average change of the glucose index (FBS, Insulin, HbAlc) after 12 weeks compared to the base time, technical statistics (mean, standard deviation, median value, minimum value, maximum value) were obtained. The comparative statistic test for the three groups was performed using ANOVA or Kruscal-Wallis test by testing whether data were normally distributed. When there was a significant difference between the three groups, the multiple comparisons were conducted through Tukey-Kramer method. In order to find out whether there was a difference in the mean change in a group, it was analyzed using Paired t-test or Wilcoxon's signed rank test.

[3] = Liver CT: degree of fat deposition in the liver (HU of liver and spleen), human application test; settings: high-dose group: allulose 12 g/d oral
Text: After conducting a screening test for those who heard the detailed description of the purpose and research method of the present example and agreed in writing as subjects, those who met the selection/exclusion criteria were selected. The specific selection criteria are as follows, and the final selected subjects are 99 men and women who are overweight or obese, and the demographic information of the selected subjects is shown in the following Table 1. Ninety nine (99) subjects were randomly assigned to the high-dose group, low-dose group or control group, with including 33 subjects in each test group. In three test groups, the products were mixed in 100 ml of water and were administered orally twice a day. As the daily dose for one test subject, 12 g allulose in the high-dose group, 6 g allulose and 6 g anhydrous glucose in the low-dose group, and 12 g anhydrous glucose in the control group were divided and provided twice a day. It was administered from the day after the random assignment day (0 day), and was taken with drinking water twice at morning and evening with meals for 12 weeks. In order to evaluate the degree of fat deposition in the liver at the time of hospital visit 2 and visit 5, the HU of liver, HU of spleen, HU difference of liver and spleen (Liver minus Spleen), and HU ratio of liver and spleen (Ratio Between Liver and Spleen) after 12 weeks compared to the base time were measured. CT attenuation values (Hounsfield units) were measured in regions of interest (ROI) selected as a homogeneous place avoiding blood vessels in the right lobe of liver and spleen in one non-contrast-enhanced abdominal CT image including both liver and spleen three times, and the average value was taken as each CT attenuation number. Then, the size of each region of interest was designated equally as 120 mm^2. Through liver CT, for HU of liver, HU of spleen, HU difference of liver and spleen (Liver minus Spleen), and HU ratio of liver and spleen (Ratio Between Liver and Spleen) after 12 weeks, technical statistics (mean, standard deviation, median value, minimum value, maximum value) were proposed for the average change compared to the base time. The comparative statistic test for the three groups was performed using ANOVA or Kruscal-Wallis test by testing whether data were normally distributed. When there was a significant difference between the three groups, the multiple comparisons were conducted through Tukey-Kramer method. In order to find out whether there was a difference in the mean change in a group, it was analyzed using Paired t-test or Wilcoxon's signed rank test.

[4] = high-dose group: allulose 12 g/d oral, 12 weeks
[5] = high-dose group: allulose 12 g/d oral
[6] = low-dose group: allulose 6 g/d + anhydrous glucose 6 g/d oral, 12 weeks
[7] = low-dose group: allulose 6 g/d + anhydrous glucose 6 g/d oral

**Q.** Which “lean body mass before and after administration” value ([1]; allulose administration groups, 12 weeks, control reduced by 0.61 kg) does the source give for `O=C(CO)C(O)C(O)C(O)CO` (centres unmarked) [allulose] here?
**A.** did not show a difference before and after administration

**Q.** And the “body fat before and after administration” value ([1]; allulose low-dose group and high-dose group, 12 weeks)?
**A.** slightly increased, but there was no statistically significant difference before and after administration

**Q.** What about the “body fat accumulation and muscle mass reduction” value ([1]; conclusion from analysis of body components, 12 weeks) of the same compound?
**A.** inhibited

**Q.** And the “Lean, 12 W, Mean” value [1, 4]?
**A.** 40.24 kg

**Q.** What about the “Fat, 12 W, Mean” value [1, 4] of the same compound?
**A.** 26.31 kg

**Q.** What about the “Fat, Difference (average change at 12 weeks compared to base time)” value [1, 5] of the same compound?
**A.** 0.25 ± 1.34 kg

**Q.** And the “Lean, Difference (12 W vs baseline)” value [1, 5]?
**A.** -0.22 ± 1.08 kg

**Q.** And the “Lean, 12 W, Mean” value [1, 6]?
**A.** 42.26 kg

**Q.** And the “Fat, 12 W, Mean” value [1, 6]?
**A.** 26.80 kg

**Q.** What about the “Fat, Difference (average change at 12 weeks compared to base time)” value [1, 7] of the same compound?
**A.** 0.16 ± 0.91 kg

**Q.** What about the “Lean, Difference (12 W vs baseline)” value [1, 7] of the same compound?
**A.** 0.05 ± 0.89 kg

**Q.** What about the “hypoglycemic effect (Glucose, Insulin, HbA1c)” value ([2]; high- and low-dose groups, 12 weeks, subjects with normal blood sugar) of the same compound?
**A.** no hypoglycemic effect

**Q.** And the “Glucose, 12 W, Mean” value [2, 4]?
**A.** 94.58 mg/dL

**Q.** What about the “Glucose, 12 W, Median” value [2, 4] of the same compound?
**A.** 94.00 mg/dL

**Q.** What about the HbA1, 12 W, Mean [2, 4] of the same compound?
**A.** 5.66%

**Q.** What about the HbA1, 12 W, Median [2, 4] of the same compound?
**A.** 5.6%

**Q.** What about the Insulin, 12 W, Mean [2, 4] of the same compound?
**A.** 8.7 µIU/mL

**Q.** And the Insulin, 12 W, Median [2, 4]?
**A.** 7.5 µIU/mL

**Q.** What about the “Glucose, Difference (12 W vs baseline)” value [2, 5] of the same compound?
**A.** -0.12 ± 8.35 mg/dL

**Q.** And the Insulin, Difference (12 W vs baseline) [2, 5]?
**A.** 1.75 ± 5.33 µIU/mL

**Q.** What about the “Glucose, 12 W, Mean” value [2, 6] of the same compound?
**A.** 97.18 mg/dL

**Q.** And the “Glucose, 12 W, Median” value [2, 6]?
**A.** 97.00 mg/dL

**Q.** And the HbA1, 12 W, Mean [2, 6]?
**A.** 5.64%

**Q.** And the HbA1, 12 W, Median [2, 6]?
**A.** 5.6%

**Q.** What about the Insulin, 12 W, Mean [2, 6] of the same compound?
**A.** 9.18 µIU/mL

**Q.** What about the Insulin, 12 W, Median [2, 6] of the same compound?
**A.** 7.1 µIU/mL

**Q.** And the “Glucose, Difference (12 W vs baseline)” value [2, 7]?
**A.** 2.42 ± 10.10 mg/dL

**Q.** And the Insulin, Difference (12 W vs baseline) [2, 7]?
**A.** 1.27 ± 5.15 µIU/mL

**Q.** What about the “Liver HU Mean, 12 W, Mean” value ([3]; 12 weeks, ITT 33) of the same compound?
**A.** 57.49 HU

**Q.** And the “Liver - Spleen HU (Liver minus Spleen), 12 W, Mean” value ([3]; 12 weeks, N 33)?
**A.** 7.19 HU

**Q.** What about the “Spleen HU Mean, 12 W, Mean” value ([3]; 12 weeks, N 33) of the same compound?
**A.** 50.30 HU

**Q.** And the “Liver HU Mean, Difference (12 W vs base line)” value ([3]; ITT 33)?
**A.** −0.78 ± 5.60 HU
